According to patent publication US20020028807A1, “Non-nucleoside reverse transcriptase inhibitors” (priority 2000, published 2002):

Experiments:
[1] = biological target: T1, HIV-1 RT Y188C (Human immunodeficiency virus type 1 group M subtype B, UniProt P03366, Y787C); assay: Reverse transcriptase (RT) assay, Y188C mutant; format: biochemical
T1 construct: an HIV RT clone pKRT2 containing only the RT p66 gene regulated by the lac operon/trc promoter; made in house; host or cells: E. coli JM109, vector pKK233-2
Text: (§1) Among the enzymes for which Human Immunodeficiency Virus (HIV-1) encodes is a reverse transcriptase (1), so-named because it transcribes a DNA copy from an RNA template. This activity can be quantitatively measured in a cell-free enzyme assay and is based upon the observation that reverse transcriptase is able to use a synthetic template poly r(C) primed with a biotinylated oligo d(G) to transcribe a radio-labelled DNA strand utilising 3H-dGTP as a substrate. The assay described below utilises the wild-type enzyme (which is the predominant form of the enzyme observed in patients infected with HIV-1) and can also be used with mutant RT enzymes (for example, Y181C, prepared by site-directed mutagenesis in which the tyrosine residue at codon 181 has been replaced by a cysteine residue) in analogous assay conditions. This assay allows compounds to be evaluated for their effectiveness at inhibiting the mutant enzymes.
(§2) Some HIV-1 IIIB clone BH10 RT mutants were provided by Dr. C.-K. Shih (Boehringer Ingelheim Pharmaceutials Inc., U.S.A.) in the vector pKK233-2 (Pharmacia). Briefly an HIV RT clone pKRT2 containing only the RT p66 gene regulated by the lac operon/trc promoter was obtained from Dr. W. Summers (Yale University) (2). A variety of specific amino acid substitutions were introduced into the wild-type RT gene by site-directed mutagenesis. RT clones were subcloned into the pKK233-2 bacterial expression vector. Clones provided included wild-type, Val106Ala, Tyr181Cys, Tyr188Cys, Tyr188Leu, Gly190Ala and Pro236Leu. Others were made in-house by site-directed mutagenesis of the pKK233-2 RT clones including Lys103Asn, Lys103Asn/Tyr181Cys, Lys103Asn/Leu100Ile, Lys103Asn/Pro225His, and Lys103Asn/Val108Ile.
(§3) Purification of recombinant reverse transcriptase was performed using a combination of methods previously described (3). A single colony from a fresh plate of transformed JM109 cells was used to initiate growth of a pre-culture grown o/n at 37° C. Two liters of growth medium were inoculated with this pre-culture. At OD600˜1.5 (5-6 h at 37° C.), RT gene expression was induced with IPTG (1 mM final), and the fermentation was continued for a few more hours at 37° C. After centrifugation, supernatants were discarded while cell pellets were pooled and stored at −80° C. until purification. Cells were thawed at 4° C. overnight and suspended in lysis buffer (MES 50 mM pH 6, EDTA 1 mM, 10% v/v glyerol, 0.02% w/v OBG, 0.02% w/v sodium azide). Lysozyme was added and the mixture was incubated on ice for 40 minutes. After homogenization using a bounce in presence of lysozyme and sonication, the cells were centrifuged for 30 minutes. Supernatant (S1) was saved and stored at 4° C. The centrifuged pellet was resuspended in extraction buffer (MES 50 mM pH 6, KPO4 50 mM pH 6, KCl 100 mM, 10% v/v glycerol, 0.02% w/v OBG, 0.02% w/v sodium axide) and stirred for 30 minutes at 4° C. This second mixture was centrifuged again and the supernatant (S2) was saved. The above procedure was repeated 2 more times saving supernatants S3 and S4 and one last extraction was performed overnight (S5). Polymin P (0.005% final) was added to the combined supernatants to remove nucleic acids. This solution was stirred for 75 minutes at 4° C. and centrifuged for 1 h. The supernatant (SS1) was precipitated on ice with 20% w/v ammonium sulfate and stirred for 1 h at 4° C. The mixture was then centrifuged and the resulting supernatant (SS2) was precipitated with additional 40% w/v ammonium sulfate (60% total), stirred for 1 h and centrifuged again. The final pellet (P1) was stored overnight at 4° C. before undergoing purification the following day. All steps of the purification were performed at 4° C. unless otherwise stated.
(§4) Pellet (P1) was resuspended into MES 50 mM pH 6, KPO4 10 mM pH 6, KCl 100 mM, 10% v/v glycerol, 0.02% w/v OBG, 0.02% w/v sodium azide. The suspension was dialysis against the same buffer overnight using 12-14 kD MWCO dialysis tubing. […]

[2] = biological target: T2, HIV-1 RT V106A (Human immunodeficiency virus type 1 group M subtype B, UniProt P03366, V705A); assay: Reverse transcriptase (RT) assay, V106A mutant; format: biochemical
T2 construct: an HIV RT clone pKRT2 containing only the RT p66 gene regulated by the lac operon/trc promoter; made in house; host or cells: E. coli JM109, vector pKK233-2
Text: as §1, §2, §3, §4

[3] = tested on: HIV coding for wild-type reverse transcriptase (WT RT); assay: ELISA (p24) assay of HIV replication in C8166 cell culture, wild-type RT virus; format: cell-based, HIV-1; settings: Human immunodeficiency virus 1, C8166, 72 h, read-out: EC50 WT RT
Method: (§5) Compounds of the invention were tested for their ability to inhibit HIV replication in cell culture in a 96-well plate assay. Complete RPMI 1640, consisting of RPMI 1640+10% fetal bovine serum, 10 μg/ml gentamycin and 10 μM β-mercaptoethanol was used for dilution of the compound as well as cell growth medium. The T lymphocyte cell line C8166 was infected at a multiplicity of infection of 0.001 with viruses coding for wild-type and mutant reverse transcriptase. Cells were then incubated for three days in the presence of serial dilutions of the compounds of the invention. The supernatant was pooled from eight replica wells and the concentration of extracellular p24 was determined using a commercially available HIV-1 p24 antigen assay kit (Beckman-Coulter®). The level of inhibition (% inhibition) was calculated with the following equation: [formula]

[4] = biological target: T3, HIV-1 RT K103N/L100I (Human immunodeficiency virus type 1 group M subtype B, UniProt P03366, K702N/L699I); assay: Reverse transcriptase (RT) assay, K103N/L100I mutant; format: biochemical
T3 construct: an HIV RT clone pKRT2 containing only the RT p66 gene regulated by the lac operon/trc promoter; made in house; host or cells: E. coli JM109, vector pKK233-2
Text: as §1, §2, §3, §4

[5] = biological target: T4, HIV-1 RT G190A (Human immunodeficiency virus type 1 group M subtype B, UniProt P03366, G789A); assay: Reverse transcriptase (RT) assay, G190A mutant; format: biochemical
T4 construct: an HIV RT clone pKRT2 containing only the RT p66 gene regulated by the lac operon/trc promoter; made in house; host or cells: E. coli JM109, vector pKK233-2
Text: as §1, §2, §3, §4

[6] = tested on: HIV coding for mutant reverse transcriptase Y188L; assay: ELISA (p24) assay of HIV replication in C8166 cell culture, Y188L virus; format: cell-based, HIV-1; settings: Human immunodeficiency virus 1, C8166, 72 h, read-out: EC50 Y188L
Method: as §5

[7] = tested on: HIV coding for mutant reverse transcriptase K103N/Y181C; assay: ELISA (p24) assay of HIV replication in C8166 cell culture, K103N/Y181C virus; format: cell-based, HIV-1; settings: Human immunodeficiency virus 1, C8166, 72 h, read-out: EC50 K103N/Y181C
Method: as §5

[8] = biological target: T5, HIV-1 RT Y188L (Human immunodeficiency virus type 1 group M subtype B, UniProt P03366, Y787L); assay: Reverse transcriptase (RT) assay, Y188L mutant; format: biochemical
T5 construct: an HIV RT clone pKRT2 containing only the RT p66 gene regulated by the lac operon/trc promoter; made in house; host or cells: E. coli JM109, vector pKK233-2
Text: as §1, §2, §3, §4

[9] = tested on: HIV coding for mutant reverse transcriptase Y181C; assay: ELISA (p24) assay of HIV replication in C8166 cell culture, Y181C virus; format: cell-based, HIV-1; settings: Human immunodeficiency virus 1, C8166, 72 h, read-out: EC50 Y181C
Method: as §5

[10] = tested on: HIV coding for mutant reverse transcriptase K103N; assay: ELISA (p24) assay of HIV replication in C8166 cell culture, K103N virus; format: cell-based, HIV-1; settings: Human immunodeficiency virus 1, C8166, 72 h, read-out: EC50 K103N
Method: as §5

[11] = biological target: T6, HIV-1 RT K103N/P225H (Human immunodeficiency virus type 1 group M subtype B, UniProt P03366, K702N/P824H); assay: Reverse transcriptase (RT) assay, K103N/P225H mutant; format: biochemical
T6 construct: an HIV RT clone pKRT2 containing only the RT p66 gene regulated by the lac operon/trc promoter; made in house; host or cells: E. coli JM109, vector pKK233-2
Text: as §1, §2, §3, §4

[12] = biological target: T7, HIV-1 RT wild-type (WT) (Human immunodeficiency virus type 1 group M subtype B, UniProt P03366); assay: Reverse transcriptase (RT) assay, wild-type enzyme; format: biochemical
T7 construct: an HIV RT clone pKRT2 containing only the RT p66 gene regulated by the lac operon/trc promoter; made in house; host or cells: E. coli JM109, vector pKK233-2
Text: as §1, §2, §3, §4

[13] = biological target: T8, HIV-1 RT K103N/Y181C (Human immunodeficiency virus type 1 group M subtype B, UniProt P03366, K702N/Y780C); assay: Reverse transcriptase (RT) assay, K103N/Y181C mutant; format: biochemical
T8 construct: an HIV RT clone pKRT2 containing only the RT p66 gene regulated by the lac operon/trc promoter; made in house; host or cells: E. coli JM109, vector pKK233-2
Text: as §1, §2, §3, §4

[14] = tested on: HIV coding for mutant reverse transcriptase V106A; assay: ELISA (p24) assay of HIV replication in C8166 cell culture, V106A virus; format: cell-based, HIV-1; settings: Human immunodeficiency virus 1, C8166, 72 h, read-out: EC50 V106A
Method: as §5

[15] = biological target: T9, HIV-1 RT K103N/V108I (Human immunodeficiency virus type 1 group M subtype B, UniProt P03366, K702N/V707I); assay: Reverse transcriptase (RT) assay, K103N/V108I mutant; format: biochemical
T9 construct: an HIV RT clone pKRT2 containing only the RT p66 gene regulated by the lac operon/trc promoter; made in house; host or cells: E. coli JM109, vector pKK233-2
Text: as §1, §2, §3, §4

[16] = biological target: T10, HIV-1 RT Y181C (Human immunodeficiency virus type 1 group M subtype B, UniProt P03366, Y780C); assay: Reverse transcriptase (RT) assay, Y181C mutant; format: biochemical
T10 construct: an HIV RT clone pKRT2 containing only the RT p66 gene regulated by the lac operon/trc promoter; made in house; host or cells: E. coli JM109, vector pKK233-2
Text: as §1, §2, §3, §4

[17] = biological target: T11, HIV-1 RT K103N (Human immunodeficiency virus type 1 group M subtype B, UniProt P03366, K702N); assay: Reverse transcriptase (RT) assay, K103N mutant; format: biochemical
T11 construct: an HIV RT clone pKRT2 containing only the RT p66 gene regulated by the lac operon/trc promoter; made in house; host or cells: E. coli JM109, vector pKK233-2
Text: as §1, §2, §3, §4

Compound | IC50 [1] | IC50 [2] | EC50 [3] | IC50 [4] | IC50 [5] | EC50 [6] | EC50 [7] | IC50 [8] | EC50 [9] | EC50 [10] | IC50 [11] | IC50 [12] | IC50 [13] | EC50 [14] | IC50 [15] | IC50 [16] | IC50 [17]
CCN1c2ncc(CCOc3cc[n+]([O-])c4ccccc34)cc2C(=O)N(C)c2ccc(C)nc21 [compound 28, 2,5-Dimethyl-5,11-dihydro-11-ethyl-8-{2-{(1-oxido-4-quinolinyl)oxy}ethyl}-6H-dipyrido[3,2-b:2′,3′-e][1,4]diazepin-6-one] | 9 nM | 605 nM | 1.3 nM | 28 nM | 25 nM | 70 nM | 7.5 nM | 1190 nM | 2.6 nM | 2.3 nM | 25 nM | 19 nM | 141 nM | 42 nM | 35 nM |  | 
CCN1c2ncc(CCOc3cccc4c3ccc[n+]4[O-])cc2C(=O)N(C)c2ccc(F)nc21 [compound 18, 5,11-Dihydro-11-ethyl-2-fluoro-5-methyl-8-{2-{(1-oxido-5-quinolinyl)-oxy}ethyl}-6H-dipyrido[3,2-b:2′,3′-e][1,4]diazepin-6-one] |  | 737 nM | 0.34 nM | 158 nM |  |  | 9.5 nM | 1170 nM |  |  | 20 nM | 11 nM | 146 nM |  | 96 nM | 41 nM | 37 nM
CCN1c2ncc(CCOc3ccnc4ccccc34)cc2C(=O)N(C)c2ccc(F)nc21 [compound 4, 5,11-Dihydro-11-ethyl-2-fluoro-5-methyl-8-{2-(4-quinolinyloxy)ethyl}-6H-dipyrido[3,2-b:2′,3′-e][1,4]diazepin-6-one] |  | 206 nM | 0.98 nM | 108 nM |  |  |  | 520 nM |  |  | 27 nM | 11 nM | 52 nM |  | 32 nM | 26 nM | 22.5 nM
CCN1c2ncc(CCOc3cccc4ncccc34)cc2C(=O)Nc2c(C)cc(Cl)nc21 [compound 25, 2-Chloro-5,11-dihydro-11-ethyl-4-methyl-8-{2-(5-quinolinyloxy)ethyl}-6H-dipyrido[3,2-b:2′,3′-e][1,4]diazepin-6-one] |  | 84 nM | 2.2 nM | 28 nM |  |  |  | 2540 nM |  |  | 23 nM | 8 nM | 64 nM |  | 38 nM | 17 nM | 19 nM
